Measurements from patent US9139615B2, “High-affinity, dimeric inhibitors of PSD-95 as efficient neuroprotectants against ischemic brain damage and for treatment of pain” (University of Copenhagen, priority 2011, dated 2015).
Where no end group is shown, it is not given here.

Experiments:
[1] = Human blood plasma stability assay; assay type: in vitro ADME; details: human, plasma; 0.25 mM, 37° C., in vitro; read-out: half-life (T1/2) in human blood plasma
Protocol: Ligands (dimeric PSD-95 inhibitors) for the PDZ domain of PSD-95 were dissolved in human blood plasma (270 μL; 3H Biomedical, Sweden, cat no 1300-1-P50) to a concentration of 0.25 mM (30 μL, of 2.5 mM) and incubated at 37° C. Aliquots (30 μL) were removed at various time intervals (e.g. 0, 5, 10, 20, 40, 80, 160, 320, 960, 1280, 2550, 4560 and 7240 min) and quenched with 60 μL, trichloroacetic acid (aq., 5%). The aliquots were vortexed, and incubated 15 min, at 4° C. prior to centrifugation at 18,000 g for 2 min. The supernatants were analyzed by analytical RP-HPLC (UV218) to quantify compound relative to time zero, and also evaluated qualitatively by ESI-LC/MS in order to identify the compound (m/z) in the sample. Procaine (positive control) and procainamide (negative control) were investigated at 50 μM to validate the procedure. Ligand recoveries following the precipitation procedure were between 85-95%.

[2] = Blood-brain barrier permeability of fluorescent analogues; assay type: in vivo, mice; details: mouse, in vivo, iv
Protocol: VI.ii. Blood-brain Barrier Permeability. […] After injection of the compounds, the mice are perfused with paraformaldehyde and the brains are carefully removed, post-fixed in paraformaldehyde, processed into coronal sections, and quantified for fluorescence (Example 8).
The fluorescent ligands were injected intravenously (3 nmol/g) and the location of the ligands was detected by fluorescence microscopy of coronal brain slices (n=8) mice, was evaluated 2 hours after injection. Two sections of the brain, prior to and two after the anterior commissure (n=5), were selected for BBB permeability analysis. The anterior commissure (Bregma: −0.3) was used as a fix point in the brain in order to analyse anatomically identical brain sections. The intensity of the 5-FAM fluorophore was measured semi-quantitatively using a fluorescence microscopy system (Olympus System Microscope model BX-51, Denmark) with a 10× objective (Olympus 10×/0.15 UPlanApo) connected to a high-resolution microscope digital camera (Olympus model DP70), which transferred images to an image-capturing software (Image Pro Plus software). All images were taken using the same microscope settings and with constant camera exposure time. Intensities were quantified using the ImageJ software.
5-FAM-labeled derivative of Tat-NR2B9c is designated MS23. After injection of the compounds, the mice are perfused with paraformaldehyde and the brains are carefully removed, post-fixed in paraformaldehyde, processed into coronal sections, and quantified for fluorescence.
C57BL/6 mice with 6 hour post-surgical survival time were euthanized by cervical dislocation. C57BL/6 mice with 48 hour post-surgical survival were anesthetized with an overdosed of pentobarbital (the pharmacy of the Faculty of Life Sciences, University of Copenhagen, Denmark) in order to collect blood and tissue samples. All brains were carefully removed, frozen in gaseous CO2 and cut into 6 series of 30 μm coronal cryostat sections and stored at −80° C. until further use. C57BL/6J mice used to investigate the blood-brain barrier (BBB) permeability of AB143, AB145, AB148, and MS23 were deeply anesthetized and perfused through the left ventricle, using 10 ml chilled Soerensens phosphate buffer (SB) ([…], 125 mM Na2HPO4, pH 7.4) followed by 20 mL SB containing 4% paraformaldehyde (PFA). The brains were carefully removed and post-fixed in 4% PFA for 1 hour followed by immersion in SB containing 20% sucrose over night. The brains were frozen on gaseous CO2 and processed into 16 μm coronal cryostat sections.

[3] = Physiological status of pMCAO mice (blood values, body weight, temperature, survival); assay type: in vivo; details: mouse, in vivo
Protocol: The physiological status of the mice was carefully monitored prior to and during pMCAO surgery in order to exclude the observed effects of treatment with dimeric PSD-95 inhibitors being due to secondary conditions (e.g. disease-related) resulting from the experimental procedure.
9.10 Body weight monitoring: The body weight of each mouse was registered during pre-training, before surgery, and at 24 and 48 hours after surgery and no differences were seen between the treatment groups (FIG. 13).
9.11 Temperature monitoring: The rectal temperature of the mouse was continuously measured using a thermocoupled probe connected to a Model Bat 12 unit (Physitemp). The temperature was measured prior to and 30 min after pMCAO in addition to 30 min and 2.5 hours after i.v. injection, i.e. 1 and 3 hours after pMCAO.
9.12 Blood gas analysis: One samples of venous blood was taken for blood gas analysis of PO2/PCO2 electrolytes, glucose, lactate, and hematocrit, 30 min after compound administration (1 hour after pMCAO). A capillary heparin coated tube was inserted along the inner corner of eye and turned until it penetrated the conjunctiva. A sample of blood (150 μl) was collected and stored on ice until gas analysis using the GEM Premier 300 blood gas instrument (Instrumentation Laboratory) Quality controls (QC ContrlIL9) were purchased from IL Sensor Systems. Also, no differences were detected in blood gas parameters (PO2/PCO2, pH, electrolytes, glu/lac), which were similar between the groups and within normal range, when compared to unmanipulated control mice (Table 4).

## YGRKKRRQRRRKLSSIESDV [Tat-NR2B9c, reference compound]
[1]
  half-life at 0.25 mM: 18.3 ± 5 h
[2]
  entry into brain, fluorescence microscopy of coronal brain slices: enter the brain
[3]
  Hct: 40.8 ± 0.6%
  [Ca2+]: 1.32 ± 0.01 mmol/L
  [K+]: 5.1 ± 0.13 mmol/L
  [Lactate]: 0.87 ± 0.07 mmol/L
  [Na+]: 147 ± 0.3 mmol/L
  pCO2: 106 ± 2.4 mmHg
  pO2: 55.2 ± 2.6 mmHg
